Test results taken from ChEMBL document CHEMBL1130146, “Fused pyrrolo[2,3-c]carbazol-6-ones: novel immunostimulants that enhance human interferon-gamma activity” (J Med Chem, 1997).

target: Protein kinase C (PKC); experiment: Inhibition of protein kinase C; assay type: protein assay, Rattus norvegicus

Row | IC50 | Structure (SMILES)
1 | > 10 µM | O=C1Cc2c(c3c4ccccc4[nH]c3c3[nH]c4ccccc4c23)N1
2 | > 10 µM | O=C1Cc2c(c3c4ccccc4sc3c3[nH]c4ccccc4c23)N1
3 | > 10 µM | O=C1Cc2c(c3c4ccccc4oc3c3[nH]c4ccccc4c23)N1
4 | > 10 µM | O=C1Cc2c(c3c(c4[nH]c5ccccc5c24)Cc2ccccc2-3)N1

test system: THP-1; experiment: Compound (2 uM) was screened for potentiation of IFN-gamma (0 units/mL)-induced expression of HLA-DR in THP-1 cells; assay type: functional, Homo sapiens

Row | Structure (SMILES) | Enhancement
5 | O=C1Cc2c(c3c4ccccc4[nH]c3c3[nH]c4ccccc4c23)N1 | 0%
6 | O=C1Cc2c(c3c4ccccc4sc3c3[nH]c4ccccc4c23)N1 | 0%
7 | O=C1Cc2c(c3c4ccccc4oc3c3[nH]c4ccccc4c23)N1 | 0%
8 | O=C1Cc2c(c3c(c4[nH]c5ccccc5c24)Cc2ccccc2-3)N1 | 0%

test system: THP-1; experiment: Compound (2 uM) was screened for potentiation of IFN-gamma (100 units/mL)-induced expression of HLA-DR in THP-1 cells; assay type: functional, Homo sapiens

Row | Structure (SMILES) | Enhancement
9 | O=C1Cc2c(c3c4ccccc4[nH]c3c3[nH]c4ccccc4c23)N1 | 130%
10 | O=C1Cc2c(c3c4ccccc4sc3c3[nH]c4ccccc4c23)N1 | 153%
11 | O=C1Cc2c(c3c4ccccc4oc3c3[nH]c4ccccc4c23)N1 | 108%
12 | O=C1Cc2c(c3c(c4[nH]c5ccccc5c24)Cc2ccccc2-3)N1 | 160%

test system: THP-1; experiment: Compound (0 uM) was screened for potentiation of IFN-gamma (0 units/mL)-induced expression of HLA-DR in THP-1 cells; assay type: functional, Homo sapiens

Row | Structure (SMILES) | Enhancement
13 | O=C1Cc2c(c3c4ccccc4[nH]c3c3[nH]c4ccccc4c23)N1 | 0%
14 | O=C1Cc2c(c3c4ccccc4sc3c3[nH]c4ccccc4c23)N1 | 0%
15 | O=C1Cc2c(c3c4ccccc4oc3c3[nH]c4ccccc4c23)N1 | 0%
16 | O=C1Cc2c(c3c(c4[nH]c5ccccc5c24)Cc2ccccc2-3)N1 | 0%

test system: THP-1; experiment: Compound (0 uM) was screened for potentiation of IFN-gamma (100 units/mL)-induced expression of HLA-DR in THP-1 cells; assay type: functional, Homo sapiens

Row | Structure (SMILES) | Enhancement
17 | O=C1Cc2c(c3c4ccccc4[nH]c3c3[nH]c4ccccc4c23)N1 | 100%
18 | O=C1Cc2c(c3c4ccccc4sc3c3[nH]c4ccccc4c23)N1 | 100%
19 | O=C1Cc2c(c3c4ccccc4oc3c3[nH]c4ccccc4c23)N1 | 100%
20 | O=C1Cc2c(c3c(c4[nH]c5ccccc5c24)Cc2ccccc2-3)N1 | 100%
